Data from publication PMC8206089, “Split NanoLuc technology allows quantitation of interactions between PII protein and its receptors with unprecedented sensitivity and reveals transient interactions” (Scientific Reports, 2021).

Key:
[1] = target: T1, NAGK-SmBiT in complex with PII-LgBiT (ligand on NAGK) (Synechocystis sp. PCC 6803, UniProt P73326); assay: NanoBiT luminescence, Arg titration of PII-NAGK complex; type: binding; conditions: 2 mM ATP or 1 mM ATP/1 mM ADP; allosteric; pH 7.6, 2 mM MgCl2, 30 °C
T1 construct: gene argB; hexameric NAGK with N-terminal His6, C-terminal 16-aa linker and SmBiT; PII trimer with C-terminal Strep-tag and LgBiT; both from E. coli Lemo21; with Nitrogen regulatory protein P-II

[2] = target: T1, NAGK-SmBiT in complex with PII-LgBiT (ligand on NAGK); assay: NanoBiT luminescence, stimulation of PII-NAGK complex formation; type: binding; conditions: 0-50 mM NAG, 2 mM ATP; 10 pM PII-LgBiT, 5 nM NAGK-SmBiT; pH 7.6, 2 mM MgCl2, 30 °C

T1 sequence (P73326 whole entry): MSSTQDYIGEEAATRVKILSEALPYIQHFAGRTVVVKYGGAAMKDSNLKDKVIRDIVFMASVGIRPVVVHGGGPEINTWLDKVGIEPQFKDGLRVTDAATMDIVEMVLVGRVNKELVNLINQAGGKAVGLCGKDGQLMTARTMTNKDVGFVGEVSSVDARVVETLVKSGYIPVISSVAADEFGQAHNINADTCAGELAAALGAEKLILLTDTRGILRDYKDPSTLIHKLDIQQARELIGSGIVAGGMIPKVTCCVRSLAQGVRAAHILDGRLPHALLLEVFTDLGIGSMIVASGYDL
T1 sequence (Q55247 whole entry partner): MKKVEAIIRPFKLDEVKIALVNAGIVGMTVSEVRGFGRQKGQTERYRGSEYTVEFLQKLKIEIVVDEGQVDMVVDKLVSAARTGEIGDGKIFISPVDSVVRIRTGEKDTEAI

Compound	NanoBiT luminescence, Arg titration of PII-NAGK complex [1]	NanoBiT luminescence, stimulation of PII-NAGK complex formation [2]
N=C(N)NCCC[C@H](N)C(=O)O [Arg]	arginine was titrated to PII-LgBiT-NAGK-SmBiT complexes and luminescence was recorded	
CC(=O)N[C@@H](CCC(=O)O)C(=O)O [NAG]		increasing NAG concentrations caused a dramatic increase in PII-NAGK interaction
